Measured values as given in patent publication US4698352A, “4-oxo-1,4-dihydronicotinic acid derivatives, salts thereof, and antibacterial agents containing the same” (Toyama Chemical Co., Ltd., priority 1982, dated 1987).
In brackets after ≈: the same amount, converted by molar mass. Read-outs that look alike come from different tables or passages of the source.

How the values were obtained:
Assay in all cases: Antibacterial activity (MIC), agar dilution
Format in all cases: cell-based
[1] = tested on: E. coli TK-3*; details: Escherichia coli, 20 h
Excerpt: (§1) The amount of bacteria inoculated was 10^4 cells per plate (10^6 cells per ml).
(§2) * Penicillinase-producing bacteria

[2] = tested on: Ps. aeruginosa GN3379*; details: Pseudomonas aeruginosa, Ps. aeruginosa GN3379, penicillinase-producing, 10^6 cells per ml
Excerpt: as §1, §2

[3] = tested on: St. aureus F-137*; details: Staphylococcus aureus, 20 h, St. aureus F-137, penicillinase-producing; 10^6 cells per ml; read-out: MIC
Excerpt: as §1, §2

[4] = tested on: Kl. pneumoniae Y-4*; details: Klebsiella pneumoniae, 20 h, Kl. pneumoniae Y-4, penicillinase-producing; 10^6 cells per ml; read-out: MIC
Excerpt: as §1, §2

[5] = tested on: E. coli TK-111; details: Escherichia coli, TK111, 20 h, E. coli TK-111; 10^6 cells per ml; 37° C., 20 hours; read-out: MIC
Excerpt: as §1

[6] = tested on: Kl. pneumoniae Y-50; details: Klebsiella pneumoniae, Y50, 20 h, 10^6 cells per ml, 37° C., read-out: MIC
Excerpt: as §1

[7] = tested on: Pro. mirabilis T-111; details: Proteus mirabilis, 37° C.
Excerpt: as §1

[8] = tested on: Ps. aeruginosa IFO3445; details: Pseudomonas aeruginosa
Excerpt: as §1

[9] = tested on: Pro. vulgaris GN3027; details: Proteus vulgaris, GN3027, 20 h, Pro. vulgaris GN3027; 10^6 cells per ml; 37° C., 20 hours; read-out: MIC
Excerpt: as §1

[10] = tested on: Aci. antitratus A-6; details: 20 h, Aci. antitratus A-6; 10^6 cells per ml; 37° C., 20 hours; read-out: MIC
Excerpt: as §1

[11] = tested on: Kl. pneumoniae Y-41; details: Klebsiella pneumoniae, Y41, 10^6 cells per ml, 37° C., 20 hours, read-out: MIC
Excerpt: as §1

[12] = tested on: E. coli NIHJ JC-2; details: Escherichia coli, NIHJJC2, 20 h, E. coli NIHJ JC-2; 10^6 cells per ml; 37° C., 20 hours; read-out: MIC
Excerpt: as §1

[13] = tested on: Ent. cloacae IID977; details: Enterobacter cloacae, IID977, 20 h
Excerpt: as §1

[14] = tested on: Pro. morganii T-216; details: Morganella morganii, 37° C.
Excerpt: as §1

[15] = tested on: St. aureus FDA209P; details: Staphylococcus aureus, FDA209P, 20 h, St. aureus FDA209P; 10^6 cells per ml; 37° C., 20 hours; read-out: MIC
Excerpt: as §1

[16] = tested on: Ps. aeruginosa S-68; details: Pseudomonas aeruginosa
Excerpt: as §1

[17] = tested on: Ps. aeruginosa GN918**; details: Pseudomonas aeruginosa, Ps. aeruginosa GN918, cephalospolinase-producing, 10^6 cells per ml
Excerpt: as §1
(§3) ** Cephalospolinase-producing bacteria

[18] = tested on: E. coli GN5482**; details: Escherichia coli, 20 h; E. coli GN5482, cephalospolinase-producing; 10^6 cells per ml; read-out: MIC
Excerpt: as §1, §3

[19] = tested on: Pro. vulgaris GN76**; details: Proteus vulgaris
Excerpt: as §1, §3

[20] = E. coli TK-3, penicillinase-producing, 10^6 cells per ml, read-out: MIC
[21] = Ps. aeruginosa IFO3445, 10^6 cells per ml, 37° C., 20 hours, read-out: MIC
[22] = Ent. cloacae IID977, 10^6 cells per ml, 37° C., 20 hours, read-out: MIC
[23] = S68, Ps. aeruginosa S-68, 10^6 cells per ml, 37° C., 20 hours, read-out: MIC
[24] = 20 h, Pro. vulgaris GN76, cephalospolinase-producing, 10^6 cells per ml, read-out: MIC
[25] = T111, 10^6 cells per ml, 20 hours, read-out: MIC
[26] = T216, 10^6 cells per ml, 20 hours, read-out: MIC

SMILES: CN(C)c1ccc(-c2cc(=O)c(C(=O)O)cn2-c2cccc(O)c2)cc1
- MIC [1, 20]: 0.39 µg/mL (≈ 1.11 µM)
- MIC ([2]; 20 h, read-out: MIC): 6.25 µg/mL (≈ 17.8 µM)
- MIC [3]: 0.2 µg/mL (≈ 0.571 µM)
- MIC [4]: 3.13 µg/mL (≈ 8.93 µM)
- MIC [5]: 0.1 µg/mL (≈ 0.285 µM)
- MIC [6]: 0.39 µg/mL (≈ 1.11 µM)
- MIC ([7]; T111, 20 h, 10^6 cells per ml): 3.13 µg/mL (≈ 8.93 µM)
- MIC [8, 21]: 12.5 µg/mL (≈ 35.7 µM)
- MIC [9]: 0.2 µg/mL (≈ 0.571 µM)
- MIC [10]: 0.39 µg/mL (≈ 1.11 µM)
- MIC [11]: 1.56 µg/mL (≈ 4.45 µM)
- MIC [12]: 0.39 µg/mL (≈ 1.11 µM)
- MIC [13, 22]: 0.78 µg/mL (≈ 2.23 µM)
- MIC ([14]; T216, 20 h, 10^6 cells per ml): 1.56 µg/mL (≈ 4.45 µM)
- MIC [15]: 0.2 µg/mL (≈ 0.571 µM)
- MIC [16, 23]: 6.25 µg/mL (≈ 17.8 µM)
- MIC ([17]; 20 h, read-out: MIC): 12.5 µg/mL (≈ 35.7 µM)
- MIC [18]: ≤ 0.05 µg/mL
- MIC [19, 24]: 0.78 µg/mL (≈ 2.23 µM)

SMILES: O=C(O)c1cn(-c2ccc(O)cc2)c(-c2ccc3ccccc3c2)cc1=O
- MIC [1, 20]: 0.39 µg/mL (≈ 1.09 µM)
- MIC ([2]; 20 h, read-out: MIC): 3.13 µg/mL (≈ 8.76 µM)
- MIC [3]: ≤ 0.05 µg/mL
- MIC [4]: 1.56 µg/mL (≈ 4.37 µM)
- MIC [5]: ≤ 0.05 µg/mL
- MIC [6]: 0.39 µg/mL (≈ 1.09 µM)
- MIC [7, 25]: 0.78 µg/mL (≈ 2.18 µM)
- MIC [8, 21]: 6.25 µg/mL (≈ 17.5 µM)
- MIC [9]: 0.1 µg/mL (≈ 0.28 µM)
- MIC [10]: 0.2 µg/mL (≈ 0.56 µM)
- MIC [11]: 1.56 µg/mL (≈ 4.37 µM)
- MIC [12]: 0.2 µg/mL (≈ 0.56 µM)
- MIC [13, 22]: 0.39 µg/mL (≈ 1.09 µM)
- MIC [14, 26]: 0.39 µg/mL (≈ 1.09 µM)
- MIC [15]: ≤ 0.05 µg/mL
- MIC ([16]; S68, 20 h): 1.56 µg/mL (≈ 4.37 µM)
- MIC ([17]; 20 h, read-out: MIC): 6.25 µg/mL (≈ 17.5 µM)
- MIC [18]: ≤ 0.05 µg/mL
- MIC [19, 24]: 0.39 µg/mL (≈ 1.09 µM)

SMILES: O=C(O)c1cn(-c2ccc(O)cc2)c(-c2ccc(-c3ccccc3)s2)cc1=O
- MIC [1, 20]: 0.78 µg/mL (≈ 2 µM)
- MIC ([2]; GN3379, 20 h): 3.13 µg/mL (≈ 8.04 µM)
- MIC [3]: ≤ 0.05 µg/mL
- MIC [4]: 1.56 µg/mL (≈ 4.01 µM)
- MIC [5]: ≤ 0.05 µg/mL
- MIC [6]: 0.78 µg/mL (≈ 2 µM)
- MIC [7, 25]: 0.78 µg/mL (≈ 2 µM)
- MIC ([8]; IFO3445, 20 h): 3.13 µg/mL (≈ 8.04 µM)
- MIC [9]: ≤ 0.05 µg/mL
- MIC [10]: 0.2 µg/mL (≈ 0.514 µM)
- MIC [11]: 3.13 µg/mL (≈ 8.04 µM)
- MIC [12]: 0.39 µg/mL (≈ 1 µM)
- MIC [13]: 1.56 µg/mL (≈ 4.01 µM)
- MIC [14, 26]: 0.78 µg/mL (≈ 2 µM)
- MIC [15]: ≤ 0.05 µg/mL
- MIC ([16]; S68, 20 h): 3.13 µg/mL (≈ 8.04 µM)
- MIC ([17]; GN918, 20 h): 1.56 µg/mL (≈ 4.01 µM)
- MIC [18]: ≤ 0.05 µg/mL
- MIC [19, 24]: 0.39 µg/mL (≈ 1 µM)

SMILES: CN(C)c1ccc(-c2cc(=O)c(C(=O)O)cn2-c2cccc3c(O)cccc23)cc1
- MIC [1, 20]: 1.56 µg/mL (≈ 3.9 µM)
- MIC ([2]; 20 h, read-out: MIC): > 100 µg/mL
- MIC [3]: ≤ 0.05 µg/mL
- MIC [4]: 6.25 µg/mL (≈ 15.6 µM)
- MIC [5]: ≤ 0.05 µg/mL
- MIC [6]: 0.78 µg/mL (≈ 1.95 µM)
- MIC [7, 25]: 3.13 µg/mL (≈ 7.82 µM)
- MIC [8, 21]: 12.5 µg/mL (≈ 31.2 µM)
- MIC [9]: 1.56 µg/mL (≈ 3.9 µM)
- MIC [10]: 0.39 µg/mL (≈ 0.974 µM)
- MIC [11]: 6.25 µg/mL (≈ 15.6 µM)
- MIC [12]: 0.39 µg/mL (≈ 0.974 µM)
- MIC [13, 22]: 1.56 µg/mL (≈ 3.9 µM)
- MIC [14, 26]: 3.13 µg/mL (≈ 7.82 µM)
- MIC [15]: 0.1 µg/mL (≈ 0.25 µM)
- MIC [16, 23]: 12.5 µg/mL (≈ 31.2 µM)
- MIC ([17]; GN918, 20 h): 6.25 µg/mL (≈ 15.6 µM)
- MIC [18]: ≤ 0.05 µg/mL
- MIC [19, 24]: 1.56 µg/mL (≈ 3.9 µM)

SMILES: O=C(O)c1cn(-c2ccc(F)cc2)c(/C=C/c2ccccc2)cc1=O
- MIC [1]: 12.5 µg/mL (≈ 37.3 µM)
- MIC ([2]; 20 h, read-out: MIC): 25 µg/mL (≈ 74.6 µM)
- MIC [3]: 3.13 µg/mL (≈ 9.33 µM)
- MIC [4]: 25 µg/mL (≈ 74.6 µM)
- MIC [5]: 1.56 µg/mL (≈ 4.65 µM)
- MIC [6]: 6.25 µg/mL (≈ 18.6 µM)
- MIC ([7]; T111, 20 h, 10^6 cells per ml): 12.5 µg/mL (≈ 37.3 µM)
- MIC [8, 21]: 50 µg/mL (≈ 149 µM)
- MIC [9]: 0.78 µg/mL (≈ 2.33 µM)
- MIC [10]: 1.56 µg/mL (≈ 4.65 µM)
- MIC [11]: 12.5 µg/mL (≈ 37.3 µM)
- MIC [12]: 3.13 µg/mL (≈ 9.33 µM)
- MIC [13]: 12.5 µg/mL (≈ 37.3 µM)
- MIC ([14]; T216, 20 h, 10^6 cells per ml): 12.5 µg/mL (≈ 37.3 µM)
- MIC [15]: 3.13 µg/mL (≈ 9.33 µM)
- MIC [16, 23]: 25 µg/mL (≈ 74.6 µM)
- MIC ([17]; 20 h, read-out: MIC): 50 µg/mL (≈ 149 µM)
- MIC [18]: 0.39 µg/mL (≈ 1.16 µM)
- MIC [19, 24]: 3.13 µg/mL (≈ 9.33 µM)

SMILES: CN(C)c1ccc(-c2cc(=O)c(C(=O)O)cn2-c2ccc(F)cc2)cc1
- MIC [1, 20]: 3.13 µg/mL (≈ 8.88 µM)
- MIC ([2]; GN3379, 20 h): 12.5 µg/mL (≈ 35.5 µM)
- MIC [3]: 0.78 µg/mL (≈ 2.21 µM)
- MIC [4]: 12.5 µg/mL (≈ 35.5 µM)
- MIC [5]: 0.39 µg/mL (≈ 1.11 µM)
- MIC [6]: 1.56 µg/mL (≈ 4.43 µM)
- MIC ([7]; T111, 20 h, 10^6 cells per ml): 6.25 µg/mL (≈ 17.7 µM)
- MIC [8, 21]: 25 µg/mL (≈ 70.9 µM)
- MIC [9]: 0.39 µg/mL (≈ 1.11 µM)
- MIC [10]: 0.39 µg/mL (≈ 1.11 µM)
- MIC [11]: 6.25 µg/mL (≈ 17.7 µM)
- MIC [12]: 0.78 µg/mL (≈ 2.21 µM)
- MIC [13, 22]: 3.13 µg/mL (≈ 8.88 µM)
- MIC [14, 26]: 3.13 µg/mL (≈ 8.88 µM)
- MIC [15]: 0.78 µg/mL (≈ 2.21 µM)
- MIC ([16]; S68, 20 h): 12.5 µg/mL (≈ 35.5 µM)
- MIC ([17]; GN918, 20 h): 12.5 µg/mL (≈ 35.5 µM)
- MIC [18]: 0.2 µg/mL (≈ 0.568 µM)
- MIC ([19]; GN76, 20 h): 1.56 µg/mL (≈ 4.43 µM)
